# Numbered stars: 1 amine (or outer) side, 2 acyl side, 3 side chain; on linkers, the order of the positions; unused ones are H or OH. Bridge positions count the residues as written; N and C are the ends. Square brackets hold non-standard residues; d marks the D form. Peptide text beside a SMILES is read from it. * marks the point of attachment. hPhe(3,5-F2-4-CF3) = N[C@@H](CCc1cc(F)c(C(F)(F)F)c(F)c1)C(=O)O; hPhe(3-Cl-4-CF3) = N[C@@H](CCc1ccc(C(F)(F)F)c(Cl)c1)C(=O)O; hPhe(3-F,4-CF3) = N[C@@H](CCc1ccc(C(F)(F)F)c(F)c1)C(=O)O; NMePhe(4-CF3) = CN[C@@H](Cc1ccc(C(F)(F)F)cc1)C(=O)O; NEtPhe(4-Cl) = CCN[C@@H](Cc1ccc(Cl)cc1)C(=O)O; NMePhe(4-CN) = CN[C@@H](Cc1ccc(C#N)cc1)C(=O)O; NMePhe(4-Cl) = CN[C@@H](Cc1ccc(Cl)cc1)C(=O)O; NMePhe(4-Me) = CN[C@@H](Cc1ccc(C)cc1)C(=O)O; NMePhe(2-Cl) = CN[C@@H](Cc1ccccc1Cl)C(=O)O; NMedβ3hAla = C[C@H](CC(=O)[*:2])N(C)[*:1]; Phe(3-I) = N[C@@H](Cc1cccc(I)c1)C(=O)O; Pro(4,4-F2) = O=C(O)[C@@H]1CC(F)(F)CN1; NMeCha = CN[C@@H](CC1CCCCC1)C(=O)O; NMeGly(cPr) = CN[C@H](C(=O)O)C1CC1; Gly(N-(CH2)2OEt) = CCOCCNCC(=O)O; NMeChg = CN[C@H](C(=O)O)C1CCCCC1; NMeI = CC[C@H](C)[C@H](NC)C(=O)O; NMeβAla = CN(CCC(=O)[*:2])[*:1]; NMeD = CN[C@@H](CC(=O)O)C(=O)O; NMeL = CN[C@@H](CC(C)C)C(=O)O; NMeV = CN[C@H](C(=O)O)C(C)C; Trifluoroethyl = FC(F)(F)C*; d(β3hA) = C[C@@H](N)CC(=O)O; NMeA = CN[C@@H](C)C(=O)O; NMeAib = CNC(C)(C)C(=O)O; Nle = CCCC[C@H](N)C(=O)O; Piperidide = C1CCN(*)CC1; Pyrrolidide = C1CCN(*)C1; Ac5c = NC1(C(=O)O)CCCC1; Aze = O=C(O)[C@@H]1CCN1; Ac4c = NC1(C(=O)O)CCC1; Sar = CNCC(=O)O
# System: Human pancreatic cancer cell line AsPC-1 (G12D mutation Kras)
# Assay: AsPC-1 cell growth inhibition (AsPC-1 CGI)
# Format: cell-based
# Conditions: read-out: AsPC-1 cell growth inhibition, 50% growth inhibitory concentration (IC50 value); 96 hours, CellTiter-Glo, values classified in ranges
# Protocol: Test compounds were serially dilated with dimethyl sulfoxide, and 200 nL was then dispensed to a U-bottom 96-well plate using Labcyte Echo. […] The cell suspension was dispensed to a. plate containing a test compound at 100 μL per well and incubated at 37° C. in a 5% carbon dioxide gas incubator. 96 hours later, 80 μL of CellTiter-Glo (Promega) was added to each well and fluorescence was measured.
row,Compound,IC50 [nM]
1,"CC[C@H](C)[C@@H]1NC(=O)[C@H](CC(C)C)N(C)C(=O)C[C@@H](C)N(C)C(=O)[C@H]([C@@H](C)CC)N(C)C(=O)C2(CCCC2)NC(=O)[C@@H]2CC(F)(F)CN2C(=O)[C@H](CCc2cc(F)c(C(F)(F)F)c(F)c2)NC(=O)CN(C)C(=O)[C@H](Cc2ccc(C(F)(F)F)cc2)N(C)C(=O)[C@@H]2CCN2C(=O)[C@H](C)N(C)C1=O [Compound 863] (cyclo([Ac5c][NMeI][NMedβ3hAla][NMeL]I[NMeA][Aze][NMePhe(4-CF3)][Sar][hPhe(3,5-F2-4-CF3)][Pro(4,4-F2)]))",≤ 20
2,CCOCCN1CC(=O)N(C)[C@@H](CC2CCCCC2)C(=O)N(C)CC(=O)N[C@@H](CCc2ccc(C(F)(F)F)c(Cl)c2)C(=O)N2CCC[C@H]2C(=O)NC2(CCCC2)C(=O)N(C)[C@@H](C(C)C)C(=O)N[C@H](C)CC(=O)N(C)[C@@H](CC(C)C)C(=O)N[C@@H]([C@@H](C)CC)C(=O)N(C)CC1=O [Compound 864] (cyclo([Ac5c][NMeV][d(β3hA)][NMeL]I[Sar][Gly(N-(CH2)2OEt)][NMeCha][Sar][hPhe(3-Cl-4-CF3)]P)),> 500
3,CC[C@H](C)[C@@H]1NC(=O)[C@H](CC(C)C)N(C)C(=O)C[C@@H](C(=O)N2CCCCC2)N(C)C(=O)[C@H](C(C)C)N(C)C(=O)C2(CCCC2)NC(=O)[C@@H]2CCCN2C(=O)[C@H](CCc2ccc(C(F)(F)F)c(Cl)c2)NC(=O)CN(C)C(=O)[C@H](Cc2ccc(C#N)cc2)N(C)C(=O)CN(C)C(=O)CN(C)C1=O [Compound 867] ([NMeL]I[Sar][Sar][NMePhe(4-CN)][Sar][hPhe(3-Cl-4-CF3)]P[Ac5c][NMeV][NMeD]-Piperidide; lactam N-11),> 500
4,CC[C@H](C)[C@@H]1NC(=O)[C@H](CC(C)C)N(C)C(=O)C[C@@H](C)N(C)C(=O)[C@H](C2CC2)N(C)C(=O)C2(CCCC2)NC(=O)[C@@H]2CCCN2C(=O)[C@H](CCc2ccc(C(F)(F)F)c(Cl)c2)NC(=O)CN(C)C(=O)[C@H](CC2CCCCC2)N(C)C(=O)CN(C)C(=O)CN(C)C1=O [Compound 874] (cyclo([Ac5c][NMeGly(cPr)][NMedβ3hAla][NMeL]I[Sar][Sar][NMeCha][Sar][hPhe(3-Cl-4-CF3)]P)),> 500
5,CCCC[C@@H]1NC(=O)[C@H](Cc2cccc(I)c2)NC(=O)CN(C)C(=O)[C@H](Cc2ccc(Cl)cc2)N(C)C(=O)CN(C)C(=O)CN(C)C(=O)[C@H]([C@@H](C)CC)NC(=O)[C@H](CC(C)C)N(C)C(=O)C[C@@H](C(=O)N2CCCCC2)N(C)C(=O)[C@H](CC(C)C)NC(=O)[C@H](Cc2ccc(C)cc2)N(C)C1=O [Compound 876] ([NMeL]I[Sar][Sar][NMePhe(4-Cl)][Sar][Phe(3-I)][Nle][NMePhe(4-Me)]L[NMeD]-Piperidide; lactam N-11),> 500
6,"CC[C@H](C)[C@@H]1NC(=O)[C@H](CC(C)C)N(C)C(=O)CCN(C)C(=O)[C@H](C(C)C)N(C)C(=O)C2(CCCC2)NC(=O)[C@@H]2CCCN2C(=O)[C@H](CCc2ccc(C(F)(F)F)c(F)c2)NC(=O)CN(C)C(=O)[C@H](CC2CCCCC2)N(C)C(=O)CN(C)C(=O)CN(C)C1=O [Compound 879] (cyclo([Ac5c][NMeV][NMeβAla][NMeL]I[Sar][Sar][NMeCha][Sar][hPhe(3-F,4-CF3)]P))",> 500
7,CC(C)C[C@H]1C(=O)N[C@@H](COCC(F)(F)F)C(=O)N(C)CC(=O)N(C)CC(=O)N(C)[C@@H](CC2CCCCC2)C(=O)N(C)CC(=O)N[C@@H](CCc2ccc(C(F)(F)F)c(Cl)c2)C(=O)N2CCC[C@H]2C(=O)NC2(CCCC2)C(=O)N(C)[C@@H](C2CCCCC2)C(=O)N(C)[C@H](C(=O)N2CCCCC2)CC(=O)N1C [Compound 894] ([NMeL]S(Trifluoroethyl)[Sar][Sar][NMeCha][Sar][hPhe(3-Cl-4-CF3)]P[Ac5c][NMeChg][NMeD]-Piperidide; lactam N-11),> 500
8,CCCC[C@@H]1NC(=O)[C@H](CCc2ccc(C(F)(F)F)c(Cl)c2)NC(=O)CN(C)C(=O)[C@H](Cc2ccc(Cl)cc2)N(CC)C(=O)CN(C)C(=O)CN(C)C(=O)[C@H]([C@@H](C)CC)NC(=O)[C@H](CC(C)C)N(C)C(=O)C[C@@H](C(=O)N2CCCCC2)N(C)C(=O)[C@H](CC(C)C)NC(=O)C(C)(C)N(C)C1=O [Compound 895] ([NMeL]I[Sar][Sar][NEtPhe(4-Cl)][Sar][hPhe(3-Cl-4-CF3)][Nle][NMeAib]L[NMeD]-Piperidide; lactam N-11),> 500
9,"CC[C@H](C)[C@@H]1NC(=O)[C@H](CC(C)C)N(C)C(=O)C[C@@H](C)N(C)C(=O)[C@H](CC(C)C)NC(=O)C(C)(C)N(C)C(=O)[C@H](CC(C)C)NC(=O)[C@H](CCc2ccc(C(F)(F)F)c(F)c2)NC(=O)CN(C)C(=O)[C@H](CC2CCCCC2)N(C)C(=O)CN(C)C(=O)[C@@H]2CCN2C1=O [Compound 905] (cyclo([Aze][Sar][NMeCha][Sar][hPhe(3-F,4-CF3)]L[NMeAib]L[NMedβ3hAla][NMeL]I))",> 500
10,CC[C@H](C)[C@@H]1NC(=O)[C@H](C)N(C)C(=O)C[C@@H](C(=O)N2CCCC2)N(C)C(=O)[C@H](C(C)C)N(C)C(=O)C2(CCC2)NC(=O)[C@H](Cc2ccccc2Cl)N(C)C(=O)[C@H](CCc2ccc(C(F)(F)F)c(Cl)c2)NC(=O)CN(C)C(=O)[C@H](CC2CCCCC2)N(C)C(=O)CN(C)C(=O)CN(C)C1=O [Compound 906] ([NMeA]I[Sar][Sar][NMeCha][Sar][hPhe(3-Cl-4-CF3)][NMePhe(2-Cl)][Ac4c][NMeV][NMeD]-Pyrrolidide; lactam N-11),> 500
